Assay results published in PMC7311426, “An amphipathic peptide with antibiotic activity against multidrug-resistant Gram-negative bacteria” (Nature Communications, 2020).
Converted amounts (≈) assume the structure as drawn. Like-named read-outs stand apart in the source and are kept apart here. Residues, ends and D or L forms follow the SMILES beside them.

Experiments:
[1] = system: E. coli (AID#172 & ATCC 25922); conditions: E. coli ATCC 25922; quality control range printed beside agar dilution MIC; cited from earlier work
Text: Supplement 41467_2020_16950_MOESM9_ESM.xlsx, sheet "Supp table 9" | column: Agar (Noble) Dilution MIC Results for AA139 and Comparators

E. coli DSA 443 ESBL [2] = test: Murine urinary tract infection (UTI) model; assay type: in vivo, E. coli in OF-1 mice; conditions: Prism column statistics
Procedure: Peritonitis and UTI murine models were performed at the Department of Microbiology & Infection Control, Statens Serum Institute, Copenhagen, Denmark, under approval by the National Committee of Animal Ethics, Denmark, and adhered to the standards of EU Directive 2010/63/EU. The mouse pneumonia model was performed by Evotec Ltd, United Kingdom, under UK Home Office Licenses and with local ethical committee clearance. All animal studies were contracted by Adenium Biotech ApS.
Peptides were prepared in Ringer’s acetate pH 6.0 (vehicle) at 34 mg mL^−1. Comparator antibiotics included meropenem (Meronem®, AstraZeneca), polymyxin B sulfate (Sigma) and tobramycin (Novartis).
The E. coli UTI in vivo model was prepared using an E. coli DSA 443 ESBL strain, in neutropenic outbred OF-1 female mice (Charles River, France). Starting 4 days before inoculation mice were given drinking water with 5% glucose. On day 0 mice were anaesthetized and inoculated with 50 μL bacterial suspension (1 × 10^9 CFU mL^−1) of E. coli DSA 443 ESBL, via a catheter in the urethra into the bladder. On days 1 and 2, mice were treated i.v. with vehicle (n = 18) or with twice-daily administrations of 5 mg kg^−1 AA139 (n = 12) or 40 mg kg^−1 meropenem (n = 12). Urine samples were taken on days 1–3 and on day 3 mice were killed and urine, kidneys, and bladder were collected for CFU counts on agar.

E. coli DSA 443 ESBL [3] = test: Murine urinary tract infection (UTI) model; assay type: in vivo, E. coli in OF-1 mice; conditions: for Day 3 Bladder, Mean Diff. Vehicle vs. Meropenem 40 mg/kg / Day 3 Urine, Mean Diff. Vehicle vs. Meropenem 40 mg/kg: Dunnett's multiple comparisons test; for Day 3 Urine, Mean 2 (group mean) / Mean Diff., Vehicle vs. treated / Mean 2 (group mean bacterial count): Meropenem 40 mg/kg; for Day 3 Urine, Mean 2 (group mean): n2 = 8; for Mean Diff., Vehicle vs. treated / Mean 2 (group mean bacterial count): UTI model, Day 3 Kidneys
E. coli K12 MG1655 = test: ATP release, BacTiter-Glo luminescence; assay type: cell-based, Escherichia coli; conditions: 60 min
Procedure: ATP was measured using the BacTiter-Glo^TM Microbial Cell Viability Assay (Promega) following the manufacturer’s instructions. The assay was performed for three biological replicates at 37 °C, with luminescence recorded using a Tecan Infinite M1000 Pro plate reader. The fold reduction of ATP was calculated as: Fold reduction ATP = 1 − (Ltreat − Lmedia/Lcontrol − Lmedia); where Ltreat is the luminescence of treated cells, Lmedia is the luminescence of CAMHB without cells, and Lcontrol is the luminescence of untreated cells. Resultant graphs show mean (n = 7) and std error for each data point, prepared in Prism 8. DMSO was included as a control as piperacillin was solubilized in DMSO, with final assay concentration of 2.5%.

[4] = system: human erythrocytes (HRBC); assay type: cell-based
[5] = system: human primary hepatocytes; test: Cell viability, human primary hepatocytes (Eurofins Panlabs); assay type: cell-based
Procedure: Cell viability of human primary hepatocytes against AA139 was assessed by fluorometric readout of Alamar Blue following 24 h incubation at 37 °C of human plateable cryopreserved hepatocytes and AA139 as an 8-point dose response, 0.1–300 μM, as described by Nociari et al.[41]. Cell viability was calculated as a percentage of the control cells and plotted versus concentration using Prism 8 Software. The IC50 value was determined by non-linear regression analysis of the concentration–response curve using the Hill equation. Assay was performed by Eurofins Pharma Discovery Services (Panlabs), St Charles, MO, USA, study number 100049990. Source data are provided as a source data file.

[6] = mouse IP
7-day iv MTD toxicity = conditions: minipig
[7] = 7-day DRF inhalation toxicity; conditions: for AUC(0-t) / Cmax: Mouse inhalation, TK dose 20 mg/kg
[8] = In vivo toxicity and safety pharmacology, i.v./i.p./s.c.

Compound: C[C@H]1COc2c(N3CCN(C)CC3)c(F)cc3c(=O)c(C(=O)O)cn1c23 [LEV, levofloxacin, reference compound]
- MIC QC range [1]: 0.008 to 0.06 µg/mL

Compound: C[C@@H](O)[C@H]1C(=O)N2C(C(=O)O)=C(S[C@@H]3CN[C@H](C(=O)N(C)C)C3)[C@H](C)[C@H]12 [Meropenem, meropenem, reference compound]
- DAY 3 BLADDER, Median (E. coli DSA 443 ESBL [2]; ESBL E. coli DSA 443, Meropenem 40 mg kg-1, bladder, median of n = 12): 3.32
- DAY 3 KIDNEY, Mean (E. coli DSA 443 ESBL [2]; ESBL E. coli DSA 443, Meropenem 40 mg kg-1, kidney, mean of n = 12): 1.644
- DAY 3 KIDNEY, Median (E. coli DSA 443 ESBL [2]; ESBL E. coli DSA 443, Meropenem 40 mg kg-1, kidney, median of n = 12): 1.4
- DAY 3 URINE, Mean (E. coli DSA 443 ESBL [2]; ESBL E. coli DSA 443, Meropenem 40 mg kg-1, urine, mean of n = 11): 1.229
- DAY 3 URINE, Median (E. coli DSA 443 ESBL [2]; ESBL E. coli DSA 443, Meropenem 40 mg kg-1, urine, median of n = 11): 1
- Day 3 Bladder, Mean Diff. Vehicle vs. Meropenem 40 mg/kg (E. coli DSA 443 ESBL [3]; Arenicin-3 study): 2.654
- Day 3 Urine, Mean Diff. Vehicle vs. Meropenem 40 mg/kg (E. coli DSA 443 ESBL [3]; Arenicin-3 study): 5.07
- DAY 3 BLADDER, Mean (E. coli DSA 443 ESBL [3]; ESBL E. coli DSA 443, Meropenem 40 mg kg-1, bladder, day 3, Prism column statistics, mean of n = 12): 3.523
- Day 3 Urine, Mean 2 (group mean) (E. coli DSA 443 ESBL [3]; Arenicin-3 study): 1.314
- Day 3 Urine, Mean 2 (group mean) (E. coli DSA 443 ESBL [3]; NZ17143 study): 1.812
- Day 3 Urine, Mean 2 (group mean) (E. coli DSA 443 ESBL [3]; NZ17211 study): 1.325
- Day 3 Bladder, Mean Diff. Vehicle vs. Meropenem 40 mg/kg (E. coli DSA 443 ESBL [3]; NZ17143 study): 2.624
- Day 3 Urine, Mean Diff. Vehicle vs. Meropenem 40 mg/kg (E. coli DSA 443 ESBL [3]; NZ17143 study): 4.004
- Day 3 Bladder, Mean Diff. Vehicle vs. Meropenem 40 mg/kg (E. coli DSA 443 ESBL [3]; NZ17211 study): 4.176
- Day 3 Urine, Mean Diff. Vehicle vs. Meropenem 40 mg/kg (E. coli DSA 443 ESBL [3]; NZ17211 study): 5.546
- Mean Diff., Vehicle vs. treated (E. coli DSA 443 ESBL [3]; Arenicin-3 experiment): 0.4699
- Mean Diff., Vehicle vs. treated (E. coli DSA 443 ESBL [3]; NZ17143 experiment): 0.6355
- Mean Diff., Vehicle vs. treated (E. coli DSA 443 ESBL [3]; NZ17211 experiment): 0.1396
- Mean 2 (group mean bacterial count) (E. coli DSA 443 ESBL [3]; comparator arm of Arenicin-3 experiment): 2.023
- Mean 2 (group mean bacterial count) (E. coli DSA 443 ESBL [3]; comparator arm of NZ17143 experiment): 1.446
- Mean 2 (group mean bacterial count) (E. coli DSA 443 ESBL [3]; comparator arm of NZ17211 experiment): 2.631

Compound: colistin
- Concentration at which maximum ATP release is reached (E. coli K12 MG1655): at its MIC

Compound: CC(C)[C@@H]1NC(=O)[C@H](Cc2ccc(O)cc2)NC(=O)[C@H](Cc2c[nH]c3ccccc23)NC(=O)[C@@H](NC(=O)[C@H](Cc2ccccc2)NC(=O)CN)CSSC[C@@H](C(=O)N[C@@H](CC(N)=O)C(=O)O)NC(=O)[C@H](CCCNC(=N)N)NC(=O)[C@H](CCCNC(=N)N)NC(=O)[C@H](Cc2ccc(O)cc2)NC(=O)[C@@H]2CSSC[C@H](NC1=O)C(=O)N[C@@H](C)C(=O)N[C@@H](CCCNC(=N)N)C(=O)N[C@@H](CCCNC(=N)N)C(=O)N[C@@H](CC(N)=O)C(=O)NCC(=O)N[C@@H](C)C(=O)N[C@@H](CCCNC(=N)N)C(=O)N[C@@H](C(C)C)C(=O)N2 [AA139] (HELM PEPTIDE1{G.F.C.W.Y.V.C.A.R.R.N.G.A.R.V.C.Y.R.R.C.N}$PEPTIDE1,PEPTIDE1,3:R3-20:R3|PEPTIDE1,PEPTIDE1,7:R3-16:R3$$$V2.0)
- Heamolysis HC10, Mean [4]: >300 µg/mL
- Heamolysis HC10 ([4]; red cells of human, 3 h): >300 µg/mL
- IC50, human primary hepatocytes ([5]; 24 h): 330 µg/mL (≈ 129 µM)
- Fold higher hepatocyte IC50 over antibacterial activity against E. coli ([5]; IC50 / MIC): 2400 fold
- Fold higher hepatocyte IC50 over antibacterial activity against K. pneumoniae ([5]; IC50 / MIC): 300 fold
- Cross species PK, concentration (Fig 6 source data) ([6]; time 0.08 h, replicate 1): 6190
- Cross species PK, concentration (Fig 6 source data) ([6]; time 0.08 h, replicate 3): 3520
- Cross species PK, concentration (Fig 6 source data) ([6]; time 0.5 h, replicate 1): 5370
- Cross species PK, concentration (Fig 6 source data) ([6]; time 0.5 h, replicate 2): 4790
- Cross species PK, concentration (Fig 6 source data) ([6]; time 0.5 h, replicate 3): 6580
- MTD at 168 h (7-day iv MTD toxicity; in vivo, iv): 10 mg/kg
- AUC(0-inf) (7-day iv MTD toxicity; in vivo, iv, 10 mg/kg): 36700 ng·h/mL
- Cmax (7-day iv MTD toxicity; in vivo, iv, 10 mg/kg): 8700 ng/mL
- Target organ toxicity, kidney (7-day iv MTD toxicity; 20, 25, or 30 mg kg^−1 per day by 2 h i.v. infusion for 7 days, dose-related severity): tubular nephropathy present
- AUC(0-t) ([7]; Day 1 ELF): 39800 ng·h/mL
- Cmax ([7]; Day 1 ELF): 8200 ng/mL
- AUC(0-t) ([7]; Day 7 ELF): 137000 ng·h/mL
- Cmax ([7]; Day 7 ELF): 42400 ng/mL
- NOAEL in mice, aerosol inhalation ([7]; aerosol inhalation over 7 days): 20 mg kg^−1 per day
- NOAEL at 168 h ([7]; mouse, in vivo, inhaled or intranasal): 20 mg/kg
- AUC(0-t) ([7]; mouse, plasma, inhaled or intranasal, 20 mg/kg, AUC 0-t, Day 1 Plasma): 2600 ng·h/mL
- AUC(0-t) ([7]; mouse, plasma, inhaled or intranasal, 20 mg/kg, AUC 0-t, Day 7 Plasma): 1400 ng·h/mL
- Cmax ([7]; mouse, plasma, inhaled or intranasal, 20 mg/kg, Cmax, Day 1 Plasma): 950 ng/mL
- Cmax ([7]; mouse, plasma, inhaled or intranasal, 20 mg/kg, Cmax, Day 7 Plasma): 470 ng/mL
- NOAEL in mice ([8]; 7-day or 14-day repeated 2 h i.v. infusion once or twice daily): 20 mg kg^−1 per day
- MTD ([8]; mouse, in vivo, ip): 20 mg/kg
- MTD ([8]; mouse, in vivo, iv): 15 mg/kg
- MTD at 168 h ([8]; mouse, in vivo, iv): 25 mg/kg
- AUC(0-t) ([8]; mouse, in vivo, iv, 20 mg/kg): 28000 ng·h/mL
- Cmax ([8]; mouse, in vivo, iv, 20 mg/kg, Cmax, Mouse, 14-day iv toxicity, GLP, TK dose 20 mg/kg, Day 1): 11600 ng/mL
- Cmax ([8]; mouse, in vivo, iv, 20 mg/kg, Cmax, Mouse, 14-day iv toxicity, GLP, TK dose 20 mg/kg, Day 14): 9600 ng/mL
- AUC(0-inf) ([8]; mouse, in vivo, iv, 29 mg/kg): 43800 ng·h/mL
- Cmax ([8]; mouse, in vivo, iv, 29 mg/kg): 7500 ng/mL
- NOAEL at 168 h ([8]; mouse, in vivo, iv, NOAEL, 7-day iv MTD, IV 2-h infusion, doses 20, 25, 30): 20 mg/kg
- NOAEL at 336 h ([8]; mouse, in vivo, iv, NOAEL, 14-day iv toxicity, GLP, IV 2-h infusion, 0, 10, 15, 20 BID): 40 mg/kg/day
- NOAEL ([8]; mouse, in vivo, iv, NOAEL, CNS & respiratory safety pharmacology iv, IV 2-h infusion, doses 0, 15, 20, 25): 20 mg/kg
- NOAEL ([8]; mouse, in vivo, iv, NOAEL, single-dose iv MTD, doses 0, 5, 7.5, 10, 15, 20): 5 mg/kg
- MTD ([8]; mouse, in vivo, sc, 100 mg/kg): 100 mg/kg
